Entries after “also recorded” stand apart in the source; their conditions may differ.

Data on 16 compounds can be found in paper PMC9381536, “Non-apoptotic cell death induction via sapogenin based supramolecular particles” (Scientific Reports, 2022).

Data set [1] relates to A549. In words: Cytotoxicity analysis (WST-1). The data set is classed as cell-based. Conditions: Homo sapiens, A549, 48 h. On the procedure:
(§1) HCC1937 (Human breast cancer line), HeLa (Human […]), A549 (Human lung adenocarcinoma), MRC-5 (Human lung fibroblasts), MCF7 (Human breast cancer cells), A549 (human lung carcinoma) were obtained from American Type Culture Collection and maintained as exponentially growing monolayers by culturing according to the supplier’s instructions. MCF7, HeLa, MRC-5, and A549 cell lines were cultured and routinely passaged in DMEM media containing 10% FBS, while HCC1937 cell lines were propagated in RPMI 1640 containing 10% FBS.
(§2) Following the treatment with compounds or vehicle for 48 h, the 10% WST-1 (Roche, Switzerland) in medium was replaced in each 96 well. After 4 h incubation with WST-1 reagent at 37 °C and 5% CO2, the absorbance was measured using a microplate reader at 440 nm (Varioscan, Thermo Fisher Scientific, US). Graph Pad Prism 5 (San Diego, CA, US.) was used to calculate the IC50, which represents the concentration of compounds that is required for 50% inhibition in comparison to the vehicle-treated controls. The experiments were repeated three times independently.

Data set [2] concerns HCC1937. Description: Cytotoxicity analysis (WST-1). The class given is cell-based. Conditions: Homo sapiens, HCC1937, 48 h. On the procedure: as §1, §2
For data set [3], the system named is HeLa. In words: Cytotoxicity analysis (WST-1). The data set is classed as cell-based. The settings on record: Homo sapiens, 48 h. On the procedure: as §1, §2
On the technique in general: Tetrazolium dyes change colour on reduction, which living cells bring about.

Data set [4] has as its system MCF7. Description: Cytotoxicity analysis (WST-1). The settings on record: Homo sapiens, MCF7, 48 h. The class given is cell-based. Here is the method:
as §1, §2

For data set [5], the system named is MRC-5. Description: Cytotoxicity analysis (WST-1). The data set is classed as cell-based. Conditions: Homo sapiens, MRC5, MRC-5 normal cell line, 48 h. On the procedure:
as §1, §2

Data set [6] deals with HeLa, HCC1937, MCF7, A549 and MRC-5. In words: cells. The class given is cell-based, Human. The settings on record: for IC50: Homo sapiens, range over HeLa, HCC1937, MCF7, A549, MRC-5, read-out: IC50 across the five cell lines.
Excerpt: We next aimed to further characterize the relation between the chemical structure of AG-08 and its capacity of supramolecular assembly formation together with its biological activities by preparing further derivatives. In this regard, 18 analogs (Fig. 4) were synthesized from 20(27)-octanor-cycloastragenol (SCG), cycloastragenol (CG), and astragenol (AG) by the methods shown in the method section. The details and characterization of which are shown in Supplementary Information. The cytotoxic activities of the semi-synthetic analogs were evaluated against four human cancer cell lines, namely HeLa, HCC1937, MCF7, and A549 as well as against MRC-5 as a normal cell line.
as §1, §2

For data set [7], the system named is HCC1937 cells. In words: Cytotoxicity of 220 nm filtrates. The class given is cell-based. The settings on record: for formation of supramolecular assemblies/particles: inferred from filtration and Tween-20 tests. Here is the method: Figure 1 AG-08 mediated cytotoxicity relies on the supramolecular structures. (A) Structure of AG-08. (B) The scanning transmission electron micrograph of 16 µM AG-08 in PBS. Figure is a representative image of stained sample with uranyl acetate (5683 × magnification; scale bar 600 nm). (C) After 3 h incubation of Nile red solution with AG-08 or AG, fluorescence intensity of Nile red was measured. (D) AG-08, Staurosporine (Sta) or vehicle samples prepared in the cell condition medium was filtrated by 220 nm filter and HCC1937 cells were exposed to the filtrates. After 24 h, the viability of cells was measured and represented as a percentage of that of the vehicle control. The error bars represent mean value ± s.d. (n = 3). *p < 0.05, **p < 0.005, ***p < 0.001. (E) Tween 20 (1:40,000) was added to the fresh medium before addition of 8 μM AG-08 or vehicle. Then cell medium was replaced with this fresh medium. Cell viability was detected after 24 h incubation. […] TEXT PRINTED IN THE PICTURE: (F) no label printed: Diameter: 153.2±4.6; polydispersity index: 0.218
To verify that the activity of AG-08 arises from its supramolecular structures, freshly prepared AG-08 solutions were filtered using 220 nm-filters to remove AG-08 supramolecular particles from medium, and the filtrates were analyzed for their cytotoxicity. […] Next, Tween-20 was utilized as a non-ionic detergent to block particle formation, and AG-08-mediated cell death was inhibited as expected (Fig. 1E). […]

The subject of data set [8] is HCC1937. Description: LDH (lactate dehydrogenase) releasing assay. The data set is classed as cell-based, Human. The settings on record: LDH release and immunoblotting. On the procedure: Figure 5 The cytotoxic activity of analogs depends on particle formation like AG-08. […] The level of released LDH was calculated as fold change relative to vehicle. […] After 24 h, cell viability was measured. […] Cell viability after 24 h was measured. The reported values correspond to mean values ± standard deviation (± s.d) of three experiments. ***p < 0.001, ****p < 0.0001.
LDH-Cytotoxicity Colorimetric Assay Kit II (Biovision) was used to detect LDH releasing. Briefly, HCC1937 were seeded on 96 well plate. After treatment with compounds, cells were centrifuged at 600×g for 10 min. 10 µl supernatant were transferred into clean 96 well plate and added into 100 µl LDH Reaction Mix. Following 30 min incubation at room temperature, 10 µl stop solution were added, and absorbance was measured at 450 nm (Varioscan, Thermo Fisher Scientific, US).

Data set [9] has as its system HCC1937 cells. Description: Endocytosis/vesicular trafficking inhibitors against AG-08-mediated cell death. The class given is cell-based, Human. The settings on record: 1 h pre-treatment, then 8 µM AG-08 24 h, HCC1937, WST-1. On the procedure: Figure 2 AG-08 is related with endosomal pathway. (A) After pre-treatment with 20 µM pitstop II, 0.5 mM methyl-β-cyclodextrin (MβC), 80 µM dynasore, 20 µM cytochalasin d (Cyto D) or 20 µM chlorpromazine (CPZ) for 1 h, HCC1937 cells were treated with 8 µM AG-08 for 24 h. Then cell viability was determined by using WST-1. Reported values were normalized on cells treated with only AG-08. Error bars are the standard deviations (n = 3). p-values were calculated with respect to AG-08 treated cells by two-tailed equal variance Student’s t-test (*p < 0.05, ***p < 0.001, ****p < 0.0001) (B) HCC1937 cells were treated with brefeldin A (Bref A) for 1 h and then treated with 8 µM AG-08 for 24 h. Error bars represent standard deviations (n = 3). p-values were calculated with respect to AG-08-treated cells (*p < 0.05, **p < 0.005, ***p < 0.001). (C) Following AG-08 treatment for 16 h, EEA1 proteins were stained using the anti-EEA1 antibody in HCC1937 cells (scale bar = 25 µm).
Pitstop II (Sigma; SML1169), methyl β cyclodextrin (Cayman; 21,633), chlorpromazine (Cayman; 16,129), dynasore (Cayman, 14,062) and cytochalasin D (Cayman; 11,330) were used as endocytosis inhibitors.

What is called IC50 is the concentration needed to halve the response being measured. As for `CC(=O)Nc1ccc(S(=O)(=O)OC2CCC3(C)C4=CCC5(C)C(C6(C)CCC(C(C)(C)O)O6)C(O)CC5(C)C4C=CC3C2(C)C)cc1` (centres unmarked) [AG-06], the IC50 in data set [1] is 5.7 µM; in data set [2], 10 µM; in data set [3], 10.8 µM; in data set [4] it was 9.34 µM; in [5] it was 19.1 µM; in [6], 5.7 to 19.1 µM. Besides, the “cytotoxic activity (structure-activity statement)” value (from here on “cytotoxic activity”) in data set [6] is given as “decrease in activity”. The “formation of supramolecular assemblies/particles” value in data set [7] is reported as “formed supramolecular particles”. Further, the “mode of cell death” value in [8] is “induced necrotic cell death”.
Consider `C=C1[C@@H](C)[C@H]2[C@H](Cc3ccccc3)NC(=O)[C@]23[C@H](OC(C)=O)/C=C/[C@@](C)(O)C(=O)[C@@H](C)C/C=C/[C@H]3[C@@H]1O` [cytochalasin D], for which, in data set [9], the “protection of cells against AG-08-mediated cell death” value (“protection of cells” for short) is reported as “failed to rescue cells”.
`O=C(N/N=C/c1ccc(O)c(O)c1)c1cc2ccccc2cc1O` [dynasore]: the “protection of cells” value in [9] is “failed to rescue cells”.
As to `CN[C@@H]1C[C@H]2O[C@@](C)([C@@H]1OC)n1c3ccccc3c3c4c(c5c6ccccc6n2c5c31)C(=O)NC4` [staurosporine, reference compound], the “cytotoxicity of filtrate after 220 nm filtration” value in data set [7] (HCC1937, 24 h) was “still effectively caused cell death”.
Consider methyl β-cyclodextrin, for which the “protection of cells” value in data set [9] is recorded as “effectively protected cells”.
In the case of `CC(C)(O)C1CCC(C)(C2C(O)CC3(C)C4C=CC5C(C)(C)C(O)CCC56CC46CCC23C)O1` (centres unmarked) [CG-02], the IC50 in [1] is 21.1 µM; in data set [2] it was 32.5 µM; in data set [3] it was 43.9 µM; in [4], 21.2 µM; in data set [5], 33.4 µM. Moreover, the “cytotoxic activity” value in [6] is “did not exhibit antiproliferative effect”.
In the case of `Cc1ccc(S(=O)(=O)OC2CCC34CC35CCC3(C)C(C6(C)CCC(C(C)(C)O)O6)C(O)CC3(C)C5C=CC4C2(C)C)cc1` (centres unmarked) [CG-03], the IC50 in data set [1] is 3.65 µM; in data set [2] it was 6.13 µM; in data set [3], 12.9 µM; in data set [4], 5.5 µM; in data set [5] it was 5.29 µM; in [6], 3.65 to 12.9 µM. The “formation of supramolecular assemblies/particles” value in data set [7] was “form supramolecular assemblies; also recorded: formed supramolecular particles”. For the same compound, in data set [8], the “mode of cell death” value is recorded as “induced necrotic cell death”.
In the case of `CC(C)(O)C1CCC(C)(C2C(O)CC3(C)C4C=CC5C(C)(C)C(OS(C)(=O)=O)CCC56CC46CCC23C)O1` (centres unmarked) [CG-04], the IC50 in data set [1], in [2], in data set [3], in [4] and in data set [5] was greater than 50 µM each time. Further, the “cytotoxic activity” value in data set [6] was “the activity was lost”.
As to `CC(C)(O)C1CCC(C)(C2C(O)CC3(C)C4C=CC5C(C)(CCC(OS(C)(=O)=O)C5(C)C)C4=CCC23C)O1` (centres unmarked) [AG-04], the IC50 is 27.5 µM in data set [1]; greater than 50 µM in data set [2]; greater than 50 µM in [3]; 22.1 µM in data set [4]; 29.6 µM in data set [5]. In [6], the “cytotoxic activity” value is listed as “the activity was lost”.
Consider `Cc1ccc(S(=O)(=O)OC2CCC34CC35CCC3(C)C(C6(C)CCC(C(C)(C)O)O6)C(O)CC3(C)C5CC(=O)C4C2(C)C)cc1` (centres unmarked) [CG-05], for which the IC50 was 1.85 µM in data set [1]; 2.66 µM in data set [2]; 6.1 µM in data set [3]; 3.85 µM in data set [4]; 2.58 µM in data set [5]; 1.85 to 6.1 µM in data set [6]. Besides, the “cytotoxic activity” value in data set [6] was “higher activity”. The “formation of supramolecular assemblies/particles” value in [7] is on record as “form supramolecular assemblies; also recorded: formed supramolecular particles”. The “mode of cell death” value in [8] is “induced necrotic cell death”.
With `CN(C)c1cccc2c(S(=O)(=O)OC3CCC4(C)C5=CCC6(C)C(C7(C)CCC(C(C)(C)O)O7)C(O)CC6(C)C5C=CC4C3(C)C)cccc12` (centres unmarked) [AG-07], the IC50 in data set [1] came out at 38.2 µM; in data set [2] it was 38.3 µM; in data set [3] it was 34.7 µM; in data set [5] it was 7.4 µM. For the same compound, in data set [6], the “cytotoxic activity” value was “loss of activity”.
In the case of `CC(C)(O)C1CCC(C)(C2C(O)CC3(C)C4CC(O)C5C(C)(C)C=CCC5(C)C4=CCC23C)O1` (centres unmarked) [AG-02], the IC50 in data set [1] was determined as 30.5 µM; in data set [2], 46.1 µM; in data set [3], 42.6 µM; in data set [4], 32.1 µM; in data set [5], 39.9 µM. Also, the “cytotoxic activity” value in data set [6] is “did not exhibit antiproliferative effect”.
Regarding `Cc1ccc(S(=O)(=O)OC2CCC3(C)C4=CCC5(C)C(C6(C)CCC(C(C)(C)O)O6)C(O)CC5(C)C4CC(=O)C3C2(C)C)cc1` (centres unmarked) [AG-05], the IC50 in data set [1] was 2.02 µM; in [2], 4.28 µM; in data set [3], 5.9 µM; in data set [4], 2.55 µM; in [5] it was 1.55 µM; in data set [6] it was 1.55 to 5.9 µM. Besides, the “cytotoxic activity” value in data set [6] is reported as “higher activity”. For the same compound, the “formation of supramolecular assemblies/particles” value in data set [7] is reported as “form supramolecular assemblies; also recorded: formed supramolecular particles”. In addition, the “mode of cell death” value in data set [8] is recorded as “induced necrotic cell death”.
Take `O=C1N=C(NS(=O)(=O)c2cccc3ccccc23)SC1=Cc1ccc(Br)cc1` [pitstop II]: the “protection of cells” value in data set [9] was “effectively protected cells”.
For `C[C@H]1CCC/C=C/[C@@H]2C[C@H](O)C[C@H]2[C@H](O)/C=C/C(=O)O1` [Brefeldin A], in [9], the “protection of cells” value is on record as “reduced AG-08 dependent cell death”.
Regarding `CN(C)CCCN1c2ccccc2Sc2ccc(Cl)cc21` [chlorpromazine], the “protection of cells” value in data set [9] was “failed to rescue cells”.
